For data set [1], the target named is Vascular endothelial growth factor receptor 2 (Homo sapiens, UniProt P35968). Briefly: Inhibition of human VEGFR2 using MEK1 as substrate incubated for 40 mins by gamma33P-ATP based scintillation counter analysis.
The target of data set [2] is T1, Receptor-type tyrosine-protein kinase FLT3 (Homo sapiens, UniProt P36888).
T1 sequence (P36888 whole entry): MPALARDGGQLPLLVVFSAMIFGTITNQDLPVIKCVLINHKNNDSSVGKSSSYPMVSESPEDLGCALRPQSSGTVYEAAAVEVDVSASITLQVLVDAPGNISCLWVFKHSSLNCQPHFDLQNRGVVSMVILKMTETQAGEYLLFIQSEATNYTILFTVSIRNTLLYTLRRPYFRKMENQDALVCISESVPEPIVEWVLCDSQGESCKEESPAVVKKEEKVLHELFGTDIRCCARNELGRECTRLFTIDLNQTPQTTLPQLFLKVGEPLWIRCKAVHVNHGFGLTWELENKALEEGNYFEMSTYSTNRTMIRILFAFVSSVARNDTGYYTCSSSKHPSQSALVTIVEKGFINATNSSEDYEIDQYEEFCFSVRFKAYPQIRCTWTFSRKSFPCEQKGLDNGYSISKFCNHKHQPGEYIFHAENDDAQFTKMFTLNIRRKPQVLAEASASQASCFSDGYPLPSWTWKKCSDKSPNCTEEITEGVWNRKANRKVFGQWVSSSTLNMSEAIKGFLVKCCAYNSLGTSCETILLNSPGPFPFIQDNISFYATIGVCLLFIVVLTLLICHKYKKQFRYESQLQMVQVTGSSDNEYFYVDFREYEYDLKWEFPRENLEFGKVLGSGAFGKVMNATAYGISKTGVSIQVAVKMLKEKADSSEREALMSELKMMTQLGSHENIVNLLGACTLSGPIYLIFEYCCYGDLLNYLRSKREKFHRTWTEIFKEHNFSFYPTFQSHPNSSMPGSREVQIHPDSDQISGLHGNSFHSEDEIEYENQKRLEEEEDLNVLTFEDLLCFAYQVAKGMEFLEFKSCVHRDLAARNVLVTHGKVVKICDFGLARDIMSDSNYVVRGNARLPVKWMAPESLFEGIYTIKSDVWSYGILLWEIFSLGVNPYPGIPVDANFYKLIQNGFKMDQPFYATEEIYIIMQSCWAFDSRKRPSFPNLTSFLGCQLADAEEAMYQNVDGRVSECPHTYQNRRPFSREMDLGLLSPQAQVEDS
Briefly: Inhibition of human FLT3 using MEK1 as substrate incubated for 40 mins by gamma33P-ATP based scintillation counter analysis.

Data set [3] deals with Epidermal growth factor receptor (Homo sapiens, UniProt P00533). Kind of data set: Inhibition of human EGFR using MEK1 as substrate incubated for 40 mins by gamma33P-ATP based scintillation counter analysis.
The target in data set [4] is Macrophage colony-stimulating factor 1 receptor (Homo sapiens, UniProt P07333). Briefly: Inhibition of human CSF1R using MEK1 as substrate incubated for 40 mins by gamma33P-ATP based scintillation counter analysis.
For data set [5], the target named is Platelet-derived growth factor receptor beta (Homo sapiens, UniProt P09619). Kind of data set: Inhibition of human PDGFRbeta using MEK1 as substrate incubated for 40 mins by gamma33P-ATP based scintillation counter analysis.
Data set [6] deals with PANC-1. Briefly: Antitumor activity against human PANC-1 cells xenografted in BALB/c nude mouse assessed as animal survival rate at 3 mg/kg, ip administered 6 times a week and measured for 100 days. Type of data set: functional. Conditions: PANC-1, 2400 h, time 100 day. On the technique in general: In xenograft studies the graft and the host belong to different species.
Data set [7] deals with Mast/stem cell growth factor receptor Kit (Homo sapiens, UniProt P10721). Briefly: Inhibition of human c-Kit using MEK1 as substrate incubated for 40 mins by gamma33P-ATP based scintillation counter analysis.
Data set [8] can be described thus: Safety index, ratio of IC50 for CHO-K1 cells to IC50 for human DU-145 cells. Type of data set: toxicity. To be noted: Chinese hamster (CHO-K1), CHO-K1 cells versus DU-145 cells, read-out: Ratio IC50.
Data set [9] in a line: Safety index, ratio of IC50 for CHO-K1 cells to IC50 for human MDA-MB-231 cells. Type of data set: toxicity. To be noted: Chinese hamster (CHO-K1), CHO-K1 cells versus MDA-MB-231 cells, read-out: Ratio IC50.
The subject of data set [10] is MDA-MB-231. Briefly: Cytotoxicity against human MDA-MB-231 cells assessed as inhibition of cell growth incubated for 48 hrs by MTT assay. It counts as functional, cell-based. To be noted: MDA-MB-231, 48 h. For orientation: Tetrazolium assays rely on reduction of a dye to a coloured formazan, in cell work by metabolically active cells.
Data set [11] can be described thus: Safety index, ratio of IC50 for CHO-K1 cells to IC50 for human HT-29 cells. It counts as toxicity. To be noted: Chinese hamster (CHO-K1), CHO-K1 cells versus HT-29 cells, read-out: Ratio IC50.
Data set [12] concerns PANC-1. Briefly: Cytotoxicity against human PANC-1 cells assessed as inhibition of cell growth at 30 uM incubated for 48 hrs by MTT assay relative to control. Type of data set: functional.
Data set [13] is described as follows: Safety index, ratio of IC50 for HEK293 cells to IC50 for human A549 cells. To be noted: HEK293 cells versus A549 cells, read-out: Ratio IC50. Type of data set: toxicity.
Data set [14] can be described thus: Cytotoxicity against CHO-K1 cells assessed as inhibition of cell growth incubated for 48 hrs by MTT assay. It counts as toxicity, cell-based, Cricetulus griseus. Conditions: Chinese hamster.
For data set [15], the system named is MCF7. Briefly: Cytotoxicity against human MCF7 cells assessed as inhibition of cell growth at 30 uM incubated for 48 hrs by MTT assay relative to control. Type of data set: functional.
Data set [16] in a line: Safety index, ratio of IC50 for CHO-K1 cells to IC50 for human U-937 cells. To be noted: Chinese hamster (CHO-K1), CHO-K1 cells versus U-937 cells, read-out: Ratio IC50. It counts as toxicity.
A short description of data set [17]: Safety index, ratio of IC50 for HEK293 cells to IC50 for human U-937 cells. It counts as toxicity. To be noted: HEK293 cells versus U-937 cells, read-out: Ratio IC50.
Data set [18] deals with MCF7. Kind of data set: Cytotoxicity against human MCF7 cells assessed as inhibition of cell growth incubated for 48 hrs by MTT assay. It counts as functional, cell-based. Conditions: MCF7, 48 h.
The nature of data set [19]: Safety index, ratio of IC50 for HEK293 cells to IC50 for human MCF7 cells. Conditions: HEK293 cells versus MCF7 cells, read-out: Ratio IC50. Type of data set: toxicity.
The nature of data set [20]: Safety index, ratio of IC50 for HEK293 cells to IC50 for human HT-29 cells. Type of data set: toxicity. To be noted: HEK293 cells versus HT-29 cells, read-out: Ratio IC50.
A short description of data set [21]: Cytotoxicity against HEK293 cells assessed as inhibition of cell growth incubated for 48 hrs by MTT assay. Type of data set: toxicity, cell-based. To be noted: human.
In data set [22] the test system is HT-29. Kind of data set: Cytotoxicity against human HT-29 cells assessed as inhibition of cell growth incubated for 48 hrs by MTT assay. Type of data set: functional, cell-based. Conditions: HT-29, 48 h.
Data set [23] has as its system U-937. Kind of data set: Cytotoxicity against human U-937 cells assessed as inhibition of cell growth incubated for 48 hrs by MTT assay. Type of data set: functional, cell-based. Conditions: U-937, 48 h.
Data set [24] in a line: Safety index, ratio of IC50 for CHO-K1 cells to IC50 for human A549 cells. Type of data set: toxicity. Conditions: Chinese hamster (CHO-K1), CHO-K1 cells versus A549 cells, read-out: Ratio IC50.
Data set [25] relates to A549. Briefly: Cytotoxicity against human A549 cells assessed as inhibition of cell growth incubated for 48 hrs by MTT assay. It counts as functional, cell-based. To be noted: A549, 48 h.
Data set [26] can be described thus: Safety index, ratio of IC50 for HEK293 cells to IC50 for human DU-145 cells. Conditions: HEK293 cells versus DU-145 cells, read-out: Ratio IC50. Type of data set: toxicity.
Data set [27] can be described thus: Safety index, ratio of IC50 for HEK293 cells to IC50 for human PANC-1 cells. Type of data set: toxicity. Conditions: HEK293 cells versus PANC-1 cells, read-out: Ratio IC50.
A short description of data set [28]: Safety index, ratio of IC50 for CHO-K1 cells to IC50 for human MCF7 cells. Conditions: Chinese hamster (CHO-K1), CHO-K1 cells versus MCF7 cells, read-out: Ratio IC50. It counts as toxicity.
Data set [29] can be described thus: Safety index, ratio of IC50 for CHO-K1 cells to IC50 for human PANC-1 cells. Conditions: Chinese hamster (CHO-K1), CHO-K1 cells versus PANC-1 cells, read-out: Ratio IC50. It counts as toxicity.
A short description of data set [30]: Safety index, ratio of IC50 for HEK293 cells to IC50 for human MDA-MB-231 cells. It counts as toxicity. Conditions: HEK293 cells versus MDA-MB-231 cells, read-out: Ratio IC50.
The test system of data set [31] is PANC-1. Kind of data set: Cytotoxicity against human PANC-1 cells assessed as inhibition of cell growth incubated for 48 hrs by MTT assay. Type of data set: functional, cell-based. Conditions: PANC-1, 48 h.
Data set [32] concerns DU-145. Briefly: Cytotoxicity against human DU-145 cells assessed as inhibition of cell growth incubated for 48 hrs by MTT assay. It counts as functional, cell-based. To be noted: DU-145, 48 h.
The test system of data set [33] is PANC-1. Kind of data set: Antitumor activity against human PANC-1 cells xenografted in BALB/c nude mouse assessed as reduction in tumor growth at 50 mg/kg, ip administered 3 times a week and measured on 30 days by caliper analysis. It counts as functional, organism-based. To be noted: time 30.0 day.
In data set [34] the test system is PANC-1. Kind of data set: Antitumor activity against human PANC-1 cells xenografted in BALB/c nude mouse assessed as animal survival rate at 50 mg/kg, ip administered 3 times a week and measured for 100 days. It counts as functional. To be noted: PANC-1, 2400 h, time 100 day.

Structures are written as SMILES. Active and inactive are the calls of the source. No cut-off for these calls is given here.

Macrophage colony-stimulating factor 1 receptor, sequence (P07333 whole entry): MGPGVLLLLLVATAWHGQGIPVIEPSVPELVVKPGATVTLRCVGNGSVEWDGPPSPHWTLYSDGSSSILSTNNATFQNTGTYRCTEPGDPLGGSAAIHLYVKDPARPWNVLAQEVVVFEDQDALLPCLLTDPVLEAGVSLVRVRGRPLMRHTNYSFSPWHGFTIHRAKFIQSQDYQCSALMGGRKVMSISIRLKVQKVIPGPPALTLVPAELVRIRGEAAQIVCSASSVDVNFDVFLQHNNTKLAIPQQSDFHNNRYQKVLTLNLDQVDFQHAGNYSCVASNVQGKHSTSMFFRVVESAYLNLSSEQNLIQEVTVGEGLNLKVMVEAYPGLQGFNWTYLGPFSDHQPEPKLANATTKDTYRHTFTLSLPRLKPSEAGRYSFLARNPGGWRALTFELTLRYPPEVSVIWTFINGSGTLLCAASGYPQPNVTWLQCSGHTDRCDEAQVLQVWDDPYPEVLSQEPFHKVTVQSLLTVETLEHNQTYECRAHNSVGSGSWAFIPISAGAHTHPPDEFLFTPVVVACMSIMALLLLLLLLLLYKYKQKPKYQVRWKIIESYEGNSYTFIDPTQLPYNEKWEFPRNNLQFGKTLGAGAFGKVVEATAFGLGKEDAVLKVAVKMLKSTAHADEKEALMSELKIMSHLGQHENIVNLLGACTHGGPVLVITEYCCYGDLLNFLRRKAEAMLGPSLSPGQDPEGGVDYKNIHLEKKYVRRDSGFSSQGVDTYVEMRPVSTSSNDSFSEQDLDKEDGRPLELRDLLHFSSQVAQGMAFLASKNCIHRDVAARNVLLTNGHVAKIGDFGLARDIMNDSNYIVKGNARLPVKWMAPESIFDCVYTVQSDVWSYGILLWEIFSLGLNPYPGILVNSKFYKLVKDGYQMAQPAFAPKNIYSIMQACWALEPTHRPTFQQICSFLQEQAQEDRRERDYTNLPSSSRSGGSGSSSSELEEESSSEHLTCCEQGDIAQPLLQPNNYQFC
Epidermal growth factor receptor, sequence (P00533 whole entry): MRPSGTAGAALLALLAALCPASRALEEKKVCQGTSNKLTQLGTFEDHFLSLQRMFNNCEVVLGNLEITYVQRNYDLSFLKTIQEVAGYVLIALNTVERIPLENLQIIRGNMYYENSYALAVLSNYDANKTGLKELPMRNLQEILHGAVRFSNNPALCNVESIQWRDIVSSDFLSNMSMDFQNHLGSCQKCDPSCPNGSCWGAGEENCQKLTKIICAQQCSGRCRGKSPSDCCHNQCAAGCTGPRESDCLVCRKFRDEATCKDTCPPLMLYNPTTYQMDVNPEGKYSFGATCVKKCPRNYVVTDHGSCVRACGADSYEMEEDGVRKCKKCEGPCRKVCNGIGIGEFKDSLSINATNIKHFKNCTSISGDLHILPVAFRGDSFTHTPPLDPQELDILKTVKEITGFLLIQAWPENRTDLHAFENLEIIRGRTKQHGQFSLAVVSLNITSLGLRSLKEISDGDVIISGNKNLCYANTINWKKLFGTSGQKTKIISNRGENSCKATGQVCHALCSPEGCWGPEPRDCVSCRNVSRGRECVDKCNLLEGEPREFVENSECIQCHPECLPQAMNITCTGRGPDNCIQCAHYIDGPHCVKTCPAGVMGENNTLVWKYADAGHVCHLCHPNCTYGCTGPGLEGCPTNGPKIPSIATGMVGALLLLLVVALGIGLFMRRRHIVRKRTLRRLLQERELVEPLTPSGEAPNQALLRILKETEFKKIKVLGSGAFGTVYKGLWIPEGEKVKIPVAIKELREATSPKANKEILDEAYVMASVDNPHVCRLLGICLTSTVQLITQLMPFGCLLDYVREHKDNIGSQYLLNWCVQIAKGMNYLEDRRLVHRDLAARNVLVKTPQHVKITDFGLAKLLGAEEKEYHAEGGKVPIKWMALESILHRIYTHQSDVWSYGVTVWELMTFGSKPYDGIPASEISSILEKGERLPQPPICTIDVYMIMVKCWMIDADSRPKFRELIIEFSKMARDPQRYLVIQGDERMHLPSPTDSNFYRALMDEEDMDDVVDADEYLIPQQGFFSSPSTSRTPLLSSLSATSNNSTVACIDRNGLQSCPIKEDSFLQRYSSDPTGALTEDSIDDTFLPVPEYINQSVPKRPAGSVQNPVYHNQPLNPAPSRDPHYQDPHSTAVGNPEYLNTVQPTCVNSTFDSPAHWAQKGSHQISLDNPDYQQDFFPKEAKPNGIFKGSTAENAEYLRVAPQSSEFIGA
Vascular endothelial growth factor receptor 2, sequence (P35968 whole entry): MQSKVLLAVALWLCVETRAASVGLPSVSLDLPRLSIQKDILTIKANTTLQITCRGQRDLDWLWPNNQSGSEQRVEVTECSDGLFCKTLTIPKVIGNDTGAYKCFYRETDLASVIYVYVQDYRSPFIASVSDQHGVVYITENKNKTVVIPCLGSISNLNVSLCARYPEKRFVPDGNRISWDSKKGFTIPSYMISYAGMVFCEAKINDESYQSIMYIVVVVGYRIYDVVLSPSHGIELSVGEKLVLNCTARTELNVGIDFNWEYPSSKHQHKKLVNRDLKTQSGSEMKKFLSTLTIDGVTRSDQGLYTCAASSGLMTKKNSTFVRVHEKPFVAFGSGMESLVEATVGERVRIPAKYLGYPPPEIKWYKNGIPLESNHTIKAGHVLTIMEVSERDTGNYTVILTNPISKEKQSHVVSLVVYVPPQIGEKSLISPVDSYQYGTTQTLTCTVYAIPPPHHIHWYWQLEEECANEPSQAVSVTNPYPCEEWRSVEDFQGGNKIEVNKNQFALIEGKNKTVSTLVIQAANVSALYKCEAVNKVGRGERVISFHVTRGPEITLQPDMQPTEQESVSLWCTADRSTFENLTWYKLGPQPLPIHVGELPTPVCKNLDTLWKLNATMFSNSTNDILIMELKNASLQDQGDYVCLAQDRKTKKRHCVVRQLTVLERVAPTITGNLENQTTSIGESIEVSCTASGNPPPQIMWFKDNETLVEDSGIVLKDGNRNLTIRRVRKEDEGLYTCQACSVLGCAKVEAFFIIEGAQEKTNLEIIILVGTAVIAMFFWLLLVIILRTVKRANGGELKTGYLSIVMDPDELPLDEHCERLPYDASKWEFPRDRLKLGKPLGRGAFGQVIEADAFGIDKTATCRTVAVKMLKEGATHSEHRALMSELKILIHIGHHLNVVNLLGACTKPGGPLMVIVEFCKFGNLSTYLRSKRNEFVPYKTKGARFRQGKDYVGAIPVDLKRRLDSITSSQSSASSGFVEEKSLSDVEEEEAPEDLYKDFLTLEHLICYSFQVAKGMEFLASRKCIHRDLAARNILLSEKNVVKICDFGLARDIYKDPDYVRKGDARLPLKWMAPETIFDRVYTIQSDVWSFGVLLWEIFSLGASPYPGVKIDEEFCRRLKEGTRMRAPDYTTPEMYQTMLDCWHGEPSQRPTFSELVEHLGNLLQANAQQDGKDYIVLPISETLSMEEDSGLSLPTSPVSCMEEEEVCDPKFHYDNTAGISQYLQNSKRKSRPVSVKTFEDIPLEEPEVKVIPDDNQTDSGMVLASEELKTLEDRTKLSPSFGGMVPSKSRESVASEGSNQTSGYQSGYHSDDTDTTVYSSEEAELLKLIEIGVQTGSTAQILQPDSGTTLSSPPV
Platelet-derived growth factor receptor beta, sequence (P09619 whole entry): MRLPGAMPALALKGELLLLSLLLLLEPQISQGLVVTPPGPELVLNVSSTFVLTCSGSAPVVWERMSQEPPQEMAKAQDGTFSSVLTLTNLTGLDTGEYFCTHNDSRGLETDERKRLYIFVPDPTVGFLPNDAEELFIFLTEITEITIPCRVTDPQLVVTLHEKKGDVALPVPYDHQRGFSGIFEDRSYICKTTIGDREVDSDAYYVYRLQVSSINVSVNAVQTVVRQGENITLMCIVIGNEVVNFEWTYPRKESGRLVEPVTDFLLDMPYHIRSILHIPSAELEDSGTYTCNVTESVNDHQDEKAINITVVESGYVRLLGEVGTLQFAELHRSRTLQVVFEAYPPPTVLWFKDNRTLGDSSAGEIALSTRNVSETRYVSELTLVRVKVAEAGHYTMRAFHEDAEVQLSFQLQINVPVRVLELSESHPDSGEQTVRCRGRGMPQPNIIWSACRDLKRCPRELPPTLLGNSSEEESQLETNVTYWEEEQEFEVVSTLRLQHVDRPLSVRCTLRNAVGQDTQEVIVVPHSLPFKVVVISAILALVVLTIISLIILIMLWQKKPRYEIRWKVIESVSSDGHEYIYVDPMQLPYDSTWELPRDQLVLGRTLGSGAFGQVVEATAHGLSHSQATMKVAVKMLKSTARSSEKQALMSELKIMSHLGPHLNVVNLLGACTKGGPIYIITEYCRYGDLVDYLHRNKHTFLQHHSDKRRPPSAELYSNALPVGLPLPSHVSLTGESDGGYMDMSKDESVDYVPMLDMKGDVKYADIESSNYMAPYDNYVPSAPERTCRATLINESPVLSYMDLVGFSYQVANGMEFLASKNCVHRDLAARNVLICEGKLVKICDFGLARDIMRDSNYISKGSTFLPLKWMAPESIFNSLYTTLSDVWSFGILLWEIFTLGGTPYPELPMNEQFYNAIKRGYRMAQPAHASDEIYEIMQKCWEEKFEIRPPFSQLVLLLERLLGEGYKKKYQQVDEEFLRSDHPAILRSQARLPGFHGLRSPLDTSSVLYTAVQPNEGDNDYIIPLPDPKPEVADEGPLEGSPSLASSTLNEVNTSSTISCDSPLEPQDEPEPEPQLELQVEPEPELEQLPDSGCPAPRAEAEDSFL

As for `Cc1nc2c(c(C)c1O)/C(=C/c1ccc3ccccc3n1)C(=O)N2`, the IC50 was more than 10 µM in [1]; more than 10 µM in [2]; 18.8 µM in [3]; 12.9 µM in data set [4]; 1 µM in data set [5]; 5.7 µM in data set [7]. Further, the survival at 3 mg/kg in [6] was found to be 100%.
`Cc1nc2c(c(C)c1O)/C(=C/c1ccc(N(C)C)cc1)C(=O)N2`: the selectivity ratio in [8] was more than 81.8; in data set [9], more than 7.4; in [11], more than 2.5; in data set [13], more than 6.8; in data set [16], more than 1; in [17], more than 1. In addition, the selectivity ratio in data set [19] is more than 6.8; in data set [20], more than 2.5; in [24] it was more than 6.8; in [26], more than 81.8; in data set [27], more than 6.5; in data set [28], more than 6.8. For the same compound, the selectivity ratio is more than 6.5 in [29] and more than 7.4 in data set [30]. The IC50 in data set [10] was 12.1 µM; in data set [18] it was 13.2 µM; in [22] it was 36.3 µM; in [23], more than 90 µM; in data set [25] it was 13.2 µM; in [31], 13.8 µM. Also, in data set [32], the IC50 worked out at 1.1 µM. For the same compound, the inhibition at 30 µM in data set [12] turned out to be 66.4%; in data set [15], 62.5%. Also, the IC50 at 48 h in data set [14] and in data set [21] was more than 90 µM throughout.
For `Nc1ccn([C@@H]2O[C@H](CO)[C@@H](O)C2(F)F)c(=O)n1` [GEMCITABINE], the result in data set [33] was inactive. Also, the survival at 50 mg/kg in [34] amounted to 80%.
`Cc1nc2c(c(C)c1O)/C(=C/c1cccnc1)C(=O)N2`: the selectivity ratio in data set [8] was found to be 65.4; in data set [9] it was 8.2; in data set [11] it was 3.9; in data set [13] it was 2.4; in data set [16], 5.4; in [17] it was 2.3. Further, the selectivity ratio in [19] worked out at 1.9; in data set [20], 1.7; in data set [24], 5.7; in [26] it was 27.5; in data set [27] it was 0.6; in [28], 4.5. The selectivity ratio came to 1.5 in [29] and 3.4 in [30]. Further, the half-maximal inhibitory concentration (IC50) amounted to 9.6 µM in data set [10]; 17.4 µM in [18]; 20 µM in data set [22]; 14.5 µM in data set [23]; 13.8 µM in [25]; 51.3 µM in [31]. Also, in data set [32], the IC50 amounted to 1.2 µM. Also, the values for the inhibition at 30 µM in data set [12] and in data set [15] were 72.8% and 78%, respectively. For the same compound, the IC50 at 48 h in data set [14] stood at 78.5 µM; in [21] it was 33 µM.

In general, IC50 refers to the point on the concentration scale where inhibition reaches its midpoint. One may read the inhibition as the drop in the measured response relative to a control, in per cent.
